According to patent publication US8466289B2, “Heterocyclic sulfonamide derivatives” (Novartis AG, priority 2009, dated 2013):

What was measured:
[1] = tested on: BRAF-MEK-ERK cascade (activated BRAF (V599E), unactive MEK1, unactive MAP Kinase 2/ERK2); assay: BRAF-MEK-ERK enzymatic cascade assay (TR-FRET); format: biochemical, human; details: compounds screened at 10 μM, 45 minutes pre-incubation with enzymes, 100 μM ATP
Source text: A BRAF-MEK-ERK cascade assay is used to evaluate the effects of the compounds as inhibitors of the MAP kinase pathway. An enzymatic cascade assay is set up using recombinant human activated BRAF (V599E) kinase (Cat No. 14-557), human full length unactive MEK1 kinase (Cat No. 14-706) and human full length unactive MAP Kinase 2/ERK2 (Cat No. 14-536) enzymes procured from Upstate. TR-FRET (Time resolved fluorescence resonance energy transfer) detection technology is used for the read out. The assay buffer solution contains 50 mM Tris pH 7.5, 10 mM MgCl2, 1 mM DTT, 0.01% Tween 20, 0.1 nM activated BRAF, 2 nM unactive MEK1, 10 nM unactive ERK2, 100 μM ATP and 500 nM long chain biotin-peptide substrate (LCB-FFKNIVTPRTPPP) in a 384 well format. The kinase reaction is stopped after 90 minutes with 10 mM EDTA and Lance detection mix (2 nM Eu-labeled phospho-serine/threonine antibody (Cat. No. AD0176-Perkin Elmer), 20 nM SA-APC (Cat No. CR130-100-Perkin Elmer) is added. The TR-FRET signal (Excitation at 340 nm, Emission at 615 nm and 665 nm) is read with 50 μs delay time on a Victor3 V fluorimeter. The data is calculated using the ratio of readings at 665 nm to 615 nm. The final concentration of DMSO is 2.5% in the assay. Compounds are screened at 10 μM concentration with pre-incubation of the enzymes in the presence of test compound for 45 minutes.
Each individual IC50 is determined using a 10 point dose response curve generated by GraphPad Prism software Version 4 (San Diego, Calif., USA) using non linear regression curve fit for sigmoidal dose response (variable slope).
These assays described above are fully detailed in Han, Shulin, et. al., Bioorganic & Medicinal Chemistry Letters (2005) 15, 5467-5473, and in Yeh, et. al., Clin Cancer Res (2007) 13 (5), 1576-1583.
(§1) The compounds of the above Examples were evaluated as inhibitors of the MAP kinase pathway in a BRAF-MEK-ERK enzymatic cascade assay and in the cell viability assay described above.

A375 cells = assay: cell viability assay in A375 cells using XTT; format: cell-based; details: Homo sapiens, A-375, 72 h, XTT read three days after compound addition
Method: The cell viability assay in A375 cells is set up in a 96-well plate format using XTT.
XTT is a yellow tetrazolium salt that is cleaved to an orange formazan dye by the mitochondria of metabolically active cells. The procedure allows for rapid determination in a microtitre plate, to give reproducible and sensitive results.
A375 cells are grown in DMEM media containing 10% FBS and 1 mM sodium pyruvate. Cells are trypsinized and seeded at 1000 cells/well. After allowing the cells to adhere overnight, compound is added to the wells at the following final concentrations: 10, 3, 1, 0.3, 0.1, 0.03, 0.01, 0.001, and 0.0001 μM. The assay is set up in triplicates for each concentration. DMSO concentrations are kept at 0.5%/well. Three days after compound addition, the XTT assay is performed. Wells are washed once with PBS. 100 μL of DMEM media without phenol red or FBS is added to each well. A working solution of XTT containing 1 mg/ml XTT and 100 μL of PMS (stock concentration 0.383 mg/ml) per 5 ml is prepared. 50 μL of the working solution of XTT is added to each well. Absorbance of the plate is read at 465 nm using a Spectramax 190 (Molecular Devices). The absorbance from wells with media and XTT alone, but without cells is considered the blank and subtracted from readings from all wells.
Percentage viability is calculated considering the blank subtracted value from wells treated with DMSO alone as 100% viable. GI50 values are calculated using Graphpad Prism, using non-linear regression curve fit for sigmoidal dose response (variable slope).
The cell viability assay is further described in Scudiero, et. al., Cancer Research (1988) 48, 4827-4833; Weislow, et. al., J. Natl. Cancer Institute, (1989) 81, 577-586; and Roehm, et. al., J. Immunol. Methods [1991]142:257-265.
as §1

Compound | % inhibition [1] | GI50 (A375 cells)
Cc1c(Nc2ccc(I)cc2F)c(NS(=O)(=O)C2(CO)CC2)c2n(c1=O)CCO2 [Example 11A, 1-Hydroxymethyl-cyclopropanesulfonic acid [7-(2-fluoro-4-iodo-phenylamino)-6-methyl-5-oxo-2,3-dihydro-5H-oxazolo[3,2-a]pyridin-8-yl]-amide] | 100% | 0.02 µM
Cc1c(Nc2ccc(I)cc2F)c(NS(=O)(=O)C2(CC(O)CO)CC2)c2n(c1=O)CCS2 (stereo not drawn) [Example 20A, 1-(2,3-Dihydroxy-propyl)-cyclopropanesulfonic acid [7-(2-fluoro-4-iodo-phenylamino)-6-methyl-5-oxo-2,3-dihydro-5H-thiazolo[3,2-a]pyridin-8-yl]-amide] | 100% | 0.054 µM
Cc1c(Nc2ccc(I)cc2F)c(NS(=O)(=O)C2(CCCO)CC2)c2n(c1=O)CCO2 [Example 12A, 1-(3-Hydroxy-propyl)-cyclopropanesulfonic acid [7-(2-fluoro-4-iodo-phenylamino)-6-methyl-5-oxo-2,3-dihydro-5H-oxazolo[3,2-a]pyridin-8-yl]-amide] | 100% | 0.011 µM
Cc1c(Nc2ccc(I)cc2F)c(NS(=O)(=O)C2CC2)c2n(c1=O)CCS2 [Example 19A, Cyclopropanesulfonic acid [7-(2-fluoro-4-iodo-phenylamino)-6-methyl-5-oxo-2,3-dihydro-5H-thiazolo[3,2-a]pyridin-8-yl]-amide] | 100% | 0.0003 µM
Cc1c(Nc2ccc(I)cc2F)c(NS(=O)(=O)C2CCC2)c2n(c1=O)CCO2 [Example 14A, Cyclobutanesulfonic acid [7-(2-fluoro-4-iodo-phenylamino)-6-methyl-5-oxo-2,3-dihydro-5H-oxazolo[3,2-a]pyridin-8-yl]-amide] | 100% | 0.016 µM
Cc1c(Nc2ccc(I)cc2F)c(NS(=O)(=O)CC2(C)COC2)c2n(c1=O)CCO2 [Example 16A, N-(7-(2-fluoro-4-iodophenylamino)-6-methyl-5-oxo-3,5-dihydro-2H-oxazolo[3,2-a]pyridin-8-yl)-1-(3-methyloxetan-3-yl)methanesulfonamide] | 100% | 1.3 µM
